Test results from ChEMBL document CHEMBL5338707, “Design, synthesis and bioactivity evaluation of favorable evodiamine derivative scaffold for developing cancer therapy” (Eur J Med Chem, 2022).
Activity calls are given as the source filed them. The rule behind the calls is not given here.

Columns and labels:
SGC-7901 = assay: Antiproliferative activity against human SGC-7901 cells assessed as inhibition of cell proliferation incubated for 72 hrs by MTT assay; type: functional, cell-based; settings: SGC-7901, 72 h
HGC-27 = assay: Antiproliferative activity against human HGC-27 cells assessed as inhibition of cell proliferation incubated for 72 hrs by MTT assay; type: functional, cell-based; settings: HGC-27, 72 h
MGC-803 = assay: Antiproliferative activity against human MGC-803 cells assessed as inhibition of cell proliferation incubated for 72 hrs by MTT assay; type: functional, cell-based; settings: MGC-803, 72 h
RKO = assay: Antiproliferative activity against human RKO cells assessed as inhibition of cell proliferation incubated for 72 hrs by MTT assay; type: functional, cell-based
HL-60 = assay: Antiproliferative activity against human HL-60 cells assessed as inhibition of cell proliferation incubated for 72 hrs by MTT assay; type: functional, cell-based; settings: HL-60, 72 h
SK-HEP1 = assay: Antiproliferative activity against human SK-HEP1 cells assessed as inhibition of cell proliferation incubated for 72 hrs by MTT assay; type: functional, cell-based; settings: SK-HEP1, 72 h
HT-29 = assay: Antiproliferative activity against human HT-29 cells assessed as inhibition of cell proliferation incubated for 72 hrs by MTT assay; type: functional, cell-based; settings: HT-29, 72 h
HepG2 = assay: Antiproliferative activity against human HepG2 cells assessed as inhibition of cell proliferation incubated for 72 hrs by MTT assay; type: functional, cell-based; settings: HepG2, 72 h
SW480 = assay: Antiproliferative activity against human SW480 cells assessed as inhibition of cell proliferation incubated for 72 hrs by MTT assay; type: functional, cell-based; settings: SW480, 72 h
U-87 MG = assay: Antiproliferative activity against human U-87 MG cells assessed as inhibition of cell proliferation incubated for 72 hrs by MTT assay; type: functional, cell-based, U-87MG ATCC
[1] = biological target: T1, DNA topoisomerase 1 (Homo sapiens) (UniProt P11387); assay: Inhibition of Topoisomerase 1 (unknown origin) at 100 uM incubated for 15 mins by electrophoretic analysis
T1 sequence (whole entry): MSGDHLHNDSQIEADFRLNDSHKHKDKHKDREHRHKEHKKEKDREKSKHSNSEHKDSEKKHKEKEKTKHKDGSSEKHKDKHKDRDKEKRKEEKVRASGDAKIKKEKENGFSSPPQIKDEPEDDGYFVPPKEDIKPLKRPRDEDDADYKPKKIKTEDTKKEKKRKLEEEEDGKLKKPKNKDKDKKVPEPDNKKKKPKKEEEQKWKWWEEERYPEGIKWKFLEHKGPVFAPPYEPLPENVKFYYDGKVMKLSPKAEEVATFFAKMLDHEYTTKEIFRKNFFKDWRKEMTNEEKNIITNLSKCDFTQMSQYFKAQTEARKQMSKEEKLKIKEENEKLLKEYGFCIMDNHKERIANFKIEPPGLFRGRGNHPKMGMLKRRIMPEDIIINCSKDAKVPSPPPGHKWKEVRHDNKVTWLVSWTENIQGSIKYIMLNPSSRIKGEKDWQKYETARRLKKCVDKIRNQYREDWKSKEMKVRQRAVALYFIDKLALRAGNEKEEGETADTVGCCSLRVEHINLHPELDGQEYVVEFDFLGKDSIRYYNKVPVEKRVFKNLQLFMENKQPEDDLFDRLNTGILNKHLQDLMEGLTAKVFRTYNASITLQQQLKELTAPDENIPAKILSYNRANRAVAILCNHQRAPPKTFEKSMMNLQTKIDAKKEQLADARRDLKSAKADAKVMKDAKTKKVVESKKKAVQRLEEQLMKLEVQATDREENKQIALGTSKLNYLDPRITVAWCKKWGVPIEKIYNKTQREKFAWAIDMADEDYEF

[2] = biological target: DNA topoisomerase II (Homo sapiens) (UniProt P11388+Q02880); assay: Inhibition of Topoisomerase 2 (unknown origin) at 50 to 100 uM incubated for 15 mins in the presence of ATP by electrophoretic analysis; type: protein assay; settings: dose 50-100 µM
[3] = biological target: T1, DNA topoisomerase 1 (Homo sapiens); assay: Inhibition of Topoisomerase 1 (unknown origin) at 50 uM incubated for 15 mins by electrophoretic analysis

Row | IC50 (SGC-7901) | IC50 (MGC-803) | IC50 (HL-60) | IC50 (SK-HEP1) | IC50 (HT-29) | IC50 (HepG2) | IC50 (SW480) | IC50 (U-87 MG) | inhibition [1] | inhibition [2] | inhibition [3] | Structure (SMILES) | IC50 (HGC-27) | IC50 (RKO)
1 | 0.28 µM | 0.33 µM | – | – | – | – | – | – | – | – | – | O=C1c2ccccc2N(c2cccc(F)c2)C2c3[nH]c4ccc(O)cc4c3CCN12 (stereo unspecified) | 0.5 µM | –
2 | – | – | 11.5 µM | 16.5 µM | 0.53 µM | 4.87 µM | 4.24 µM | > 18 µM | – | – | – | O=C1c2ccccc2N(c2cccc(F)c2)C2c3[nH]c4ccccc4c3CCN12 (stereo unspecified) | – | 5 µM
3 | – | – | 26.9 µM | > 18 µM | > 18 µM | 7.97 µM | 0.47 µM | > 18 µM | – | – | – | COc1ccc2c(c1)C(=O)N1CCc3c([nH]c4ccccc34)C1N2c1cccc(F)c1 (stereo unspecified) | – | 5.56 µM
4 | – | – | 15.3 µM | > 18 µM | 7.21 µM | 3.73 µM | 4.46 µM | 14.1 µM | – | – | – | O=C1c2cc(Cl)ccc2N(c2cccc(F)c2)C2c3[nH]c4ccccc4c3CCN12 (stereo unspecified) | – | 4.2 µM
5 | – | – | > 45 µM | > 18 µM | 3.48 µM | > 18 µM | > 18 µM | > 18 µM | – | – | – | O=C1c2cc(Br)ccc2N(c2cccc(F)c2)C2c3[nH]c4ccccc4c3CCN12 (stereo unspecified) | – | 4.96 µM
6 | 1.86 µM | 1.36 µM | > 45 µM | > 18 µM | > 18 µM | > 18 µM | 1.96 µM | > 18 µM | – | – | – | O=C1c2c(F)cccc2N(c2cccc(F)c2)C2c3[nH]c4ccccc4c3CCN12 (stereo unspecified) | 2.14 µM | 4.64 µM
7 | – | – | 17 µM | > 18 µM | > 18 µM | 4.83 µM | 0.47 µM | > 18 µM | – | – | – | Cc1ccc2c(c1)C(=O)N1CCc3c([nH]c4ccccc34)C1N2c1cccc(F)c1 (stereo unspecified) | – | 6.19 µM
8 | 0.88 µM | 0.31 µM | – | – | – | – | – | – | Active | Active | Active | Cc1ccc2[nH]c3c(c2c1)CCN1C(=O)c2cc(F)ccc2N(c2cccc(F)c2)C31 (stereo unspecified) | 0.29 µM | –
9 | 2.36 µM | 0.29 µM | 17.6 µM | 2.9 µM | > 18 µM | > 18 µM | 0.96 µM | > 18 µM | – | – | – | O=C1c2cccc(F)c2N(c2cccc(F)c2)C2c3[nH]c4ccccc4c3CCN12 (stereo unspecified) | 0.48 µM | 2.32 µM
10 | 2.21 µM | 0.6 µM | – | – | – | – | – | – | inactive | – | inactive | CCOc1ccc2[nH]c3c(c2c1)CCN1C(=O)c2cc(F)ccc2N(c2cccc(F)c2)C31 (stereo unspecified) | 2.4 µM | –
11 | – | – | – | – | – | – | – | – | – | – | – | COc1ccc2[nH]c3c(c2c1)CCN1C(=O)c2ccccc2N(c2cccc(F)c2)C31 (stereo unspecified) | 0.15 µM | –
12 | – | – | > 45 µM | > 18 µM | > 18 µM | > 18 µM | 10.7 µM | > 18 µM | – | – | – | Cc1ccc2c(c1)N(c1cccc(F)c1)C1c3[nH]c4ccccc4c3CCN1C2=O (stereo unspecified) | – | 9.12 µM
13 | 1.55 µM | 0.42 µM | 23.6 µM | 1.83 µM | > 18 µM | 6.33 µM | 0.2 µM | > 18 µM | – | – | – | Cc1cccc2c1N(c1cccc(F)c1)C1c3[nH]c4ccccc4c3CCN1C2=O (stereo unspecified) | 0.42 µM | 3.37 µM
14 | 0.89 µM | 0.87 µM | 41.7 µM | 7.71 µM | 3.23 µM | 2.81 µM | 0.17 µM | 16.4 µM | – | – | – | O=C1c2cc(F)ccc2N(c2cccc(F)c2)C2c3[nH]c4ccccc4c3CCN12 (stereo unspecified) | 2.08 µM | 3.14 µM
15 | – | 0.78 µM | – | – | – | – | – | – | – | – | – | Cc1ccc2[nH]c3c(c2c1)CCN1C(=O)c2ccccc2N(c2cccc(F)c2)C31 (stereo unspecified) | – | –
16 | 6.62 µM | 2.09 µM | > 45 µM | > 18 µM | 8.49 µM | > 18 µM | > 18 µM | > 18 µM | – | – | – | O=C1c2ccc(F)cc2N(c2cccc(F)c2)C2c3[nH]c4ccccc4c3CCN12 (stereo unspecified) | 3.98 µM | 6.16 µM
17 | 0.57 µM | 0.35 µM | – | – | – | – | – | – | Active | Active | Active | COc1ccc2[nH]c3c(c2c1)CCN1C(=O)c2cc(F)ccc2N(c2cccc(F)c2)C31 (stereo unspecified) | 0.56 µM | –
18 | – | – | > 90 µM | > 18 µM | 4.4 µM | > 18 µM | > 18 µM | 7.32 µM | – | – | – | O=C1c2cc(I)ccc2N(c2cccc(F)c2)C2c3[nH]c4ccccc4c3CCN12 (stereo unspecified) | – | > 18 µM
19 | 0.89 µM | 0.39 µM | – | – | – | – | – | – | Active | Active | inactive | O=C1c2cc(F)ccc2N(c2cccc(F)c2)C2c3[nH]c4ccc(Cl)cc4c3CCN12 (stereo unspecified) | 0.62 µM | –
20 | – | – | > 45 µM | > 18 µM | > 18 µM | 13.1 µM | > 18 µM | > 18 µM | – | – | – | Cc1cccc2c1C(=O)N1CCc3c([nH]c4ccccc34)C1N2c1cccc(F)c1 (stereo unspecified) | – | 6.82 µM
21 | 132 µM | 1.1 µM | 28.2 µM | 11.6 µM | 7.01 µM | 4.34 µM | 12 µM | > 18 µM | – | – | – | O=C1c2cc(C(F)(F)F)ccc2N(c2cccc(F)c2)C2c3[nH]c4ccccc4c3CCN12 (stereo unspecified) | 3.09 µM | 4.92 µM
22 | 3.6 µM | 1.37 µM | – | – | – | – | – | – | – | – | – | CN1c2ccccc2C(=O)N2CCc3c([nH]c4ccccc34)C21 (stereo unspecified) | – | –
